Read-outs that look alike come from different tables or passages of the source. *1 amine or outer side, *2 acyl side, *3 side chain or, on linkers, in order; H or OH if unused. Where a SMILES comes first, the peptide text is derived from it. Bridges are numbered along the chain shown (N, C = ends). [ ]: non-standard residue; d: D form. The star is where a group is joined. TATA = O=C(CC[*:1])N1CN(C(=O)CC[*:2])CN(C(=O)CC[*:3])C1; NOTA = O=C(O)CN1CCN(CC(=O)O)CCN(CC(=O)*)CC1; Hyp = O=C(O)[C@@H]1C[C@@H](O)CN1; hArg = N=C(N)NCCCC[C@H](N)C(=O)O; PEG2 = NCCOCCOCCC(=O)O; Sar = CNCC(=O)O
Columns and labels:
BxPC3 tumor xenografts = assay: Ex vivo biodistribution; type: in vivo, NSG mice; details: BxPC3 xenograft; 60 min p.i.; mean ± SEM (n = 4 or 5)
Protocol: (§1) Animal studies were performed under Johns Hopkins University Animal Care and Use Committee (ACUC)-approved protocol (Principal investigator: Sridhar Nimmagadda, Ph.D. and Protocol number M021M175). Male and Female NSG mice (5-6 weeks old) were purchased from JHU immunocompromised core and used to establish xenografts by administering cells subcutaneously (top right flank, unless otherwise noted) to form various tumor models within 3-4 weeks. Following cell numbers were used: Panc1, AsPC1, BxPC3 (1 M), Hs766T and SU8686 (2 M), CFPAC and Panc1005 (5 M). Imaging or biodistribution studies (n = 3-5) were conducted on mice with tumor volumes of 100-200 mm^3. The Panc1 orthotopic tumor model was established by surgically implanting a 3-5 mm^3 section of Panc1 tumor xenograft directly onto the pancreas. The implanted tumors were allowed to grow and were ready for imaging after 10 days of implantation.
(§2) Mice with 100-200 mm^3 tumor volume were used for ex vivo biodistribution studies. For radiotracer pharmacokinetics and dosimetry studies, mice with Panc1 tumor xenograft received ~80 µCi (2.96 MBq) [^68Ga]AJ201 and were sacrificed at pre-determined time points (5, 30, 60, 90 and 120 min). All other mice were injected with ~50 µCi (1.85 MBq; 0.2 to 0.5 nmol) Ga-68 labeled radiotracer and were sacrificed at 60 min. The selected tissues were collected, weighed, counted, and their %ID/g values calculated for biodistribution analysis. For pharmacokinetics and dosimetry studies, selected tissues included blood, muscle, tumor, thymus, heart, lung, liver, pancreas, stomach, small intestine, large intestine, spleen, adrenals, kidney, bladder, femur, brain and tumor xenografts. For other studies, selected tissues were blood, muscle, tumor, heart, lung, liver, pancreas, small intestine, spleen, kidney.

Ex vivo biodistribution = assay: Ex vivo biodistribution; set-up: species or system NSG mice; details: both sexes, NSG, mouse, in vivo, iv, 80 uCi, total radioactivity, mean ± SEM (n = 4 or 5); for tissue uptake at 5 min / tissue to tissue ratio at 5 min: 5 min p.i.; for tissue uptake at 5 min / tissue uptake at 0.5 h / tissue uptake at 1 h / tissue uptake at 1.5 h / tissue uptake at 2 h: i.v.; for tissue to tissue ratio at 5 min / tissue to tissue ratio at 0.5 h / tissue to tissue ratio at 1 h / tissue to tissue ratio at 1.5 h: dimensionless; for tissue uptake at 0.5 h / tissue to tissue ratio at 0.5 h: 30 min p.i.; for tissue uptake at 1 h / tissue to tissue ratio at 1 h: 60 min p.i.; for tissue uptake at 1.5 h / tissue to tissue ratio at 1.5 h: 90 min p.i.; for tissue uptake at 2 h: 120 min p.i.
Protocol: as §1, §2

[1] = read-out: Stomach with contents uptake

**Q.** With `CC(C)C[C@@H]1NC(=O)[C@@H]2CSCCC(=O)N3CN(CN(C3)C(=O)CCSC[C@H](NC(=O)[C@H](CC(=O)O)NC(=O)[C@H](CCCCNC(=N)N)NC(=O)[C@H](C)NC(=O)CNC(=O)CN(C)C(=O)CN(C)C(=O)CN(C)C(=O)[C@H](CCCNC(=N)N)NC(=O)CNC(=O)CCOCCOCCNC(=O)CN3CCN(CC(=O)O)CCN(CC(=O)O)CC3)C(=O)N3C[C@H](O)C[C@H]3C(=O)N[C@@H](CC(C)C)C(=O)N[C@@H](C(C)C)C(=O)N[C@@H](CC(N)=O)C(=O)N3CCC[C@H]3C(=O)N[C@@H](CC(C)C)C(=O)N2)C(=O)CCSC[C@@H](C(N)=O)NC(=O)[C@H](CCCCNC(=N)N)NC(=O)[C@H](Cc2c[nH]c3ccccc23)NC(=O)[C@@H](CC(=O)O)NC(=O)[C@@H]2CCCN2C(=O)[C@H](Cc2c[nH]cn2)NC1=O` [[^68Ga]AJ201, metal not drawn] ({NOTA-PEG2}-GR[Sar][Sar][Sar]GA[hArg]DC[Hyp]LVNPLCLHP[dD]W[hArg]C-NH2; linker 10-17-24 via TATA) as the molecule, how does the Heart uptake (BxPC3 tumor xenografts) read?
**A.** 0.29 ± 0.01 %ID/g

**Q.** What about the tissue uptake at 5 min (Ex vivo biodistribution; read-out: Blood uptake) of the same molecule?
**A.** 8.2 ± 0.92 %ID/g

**Q.** And the tissue uptake at 5 min (Ex vivo biodistribution; read-out: Brain uptake)?
**A.** 0.4 ± 0.08 %ID/g

**Q.** And the tissue uptake at 5 min (Ex vivo biodistribution; read-out: Heart uptake)?
**A.** 4.19 ± 1.06 %ID/g

**Q.** And the tissue uptake at 5 min (Ex vivo biodistribution; read-out: Liver uptake)?
**A.** 4.25 ± 0.99 %ID/g

**Q.** And the tissue uptake at 5 min (Ex vivo biodistribution; read-out: Lung uptake)?
**A.** 8.24 ± 0.93 %ID/g

**Q.** And the tissue uptake at 5 min (Ex vivo biodistribution; read-out: Muscle uptake)?
**A.** 1.79 ± 0.24 %ID/g

**Q.** And the tissue uptake at 5 min (Ex vivo biodistribution; read-out: Pancreas uptake)?
**A.** 3.24 ± 0.08 %ID/g

**Q.** And the tissue uptake at 5 min (Ex vivo biodistribution; [1])?
**A.** 1.8 ± 0.39 %ID/g

**Q.** What about the tissue uptake at 5 min (Ex vivo biodistribution; read-out: Thymus uptake) of the same molecule?
**A.** 4.61 ± 0.51 %ID/g

**Q.** What about the tissue uptake at 5 min (Ex vivo biodistribution; read-out: Tumor uptake) of the same molecule?
**A.** 7.06 ± 0.48 %ID/g

**Q.** What about the tissue to tissue ratio at 5 min (Ex vivo biodistribution; read-out: Tumor/Muscle ratio) of the same molecule?
**A.** 4.12 ± 0.66

**Q.** And the tissue to tissue ratio at 5 min (Ex vivo biodistribution; read-out: Tumor/Pancreas ratio)?
**A.** 2.18 ± 0.14

**Q.** And the tissue to tissue ratio at 5 min (Ex vivo biodistribution; read-out: Tumor/blood ratio)?
**A.** 0.89 ± 0.14

**Q.** And the tissue uptake at 0.5 h (Ex vivo biodistribution; read-out: Blood uptake)?
**A.** 1.61 ± 0.18 %ID/g

**Q.** What about the tissue uptake at 0.5 h (Ex vivo biodistribution; read-out: Brain uptake) of the same molecule?
**A.** 0.09 ± 0.01 %ID/g

**Q.** And the tissue uptake at 0.5 h (Ex vivo biodistribution; read-out: Heart uptake)?
**A.** 0.97 ± 0.15 %ID/g

**Q.** And the tissue uptake at 0.5 h (Ex vivo biodistribution; read-out: Liver uptake)?
**A.** 1.15 ± 0.19 %ID/g

**Q.** And the tissue uptake at 0.5 h (Ex vivo biodistribution; read-out: Lung uptake)?
**A.** 2.29 ± 0.26 %ID/g

**Q.** What about the tissue uptake at 0.5 h (Ex vivo biodistribution; read-out: Muscle uptake) of the same molecule?
**A.** 1.11 ± 0.34 %ID/g

**Q.** What about the tissue uptake at 0.5 h (Ex vivo biodistribution; read-out: Pancreas uptake) of the same molecule?
**A.** 0.74 ± 0.1 %ID/g

**Q.** What about the tissue uptake at 0.5 h (Ex vivo biodistribution; [1]) of the same molecule?
**A.** 0.77 ± 0.31 %ID/g

**Q.** What about the tissue uptake at 0.5 h (Ex vivo biodistribution; read-out: Thymus uptake) of the same molecule?
**A.** 2.35 ± 0.66 %ID/g

**Q.** What about the tissue uptake at 0.5 h (Ex vivo biodistribution; read-out: Tumor uptake) of the same molecule?
**A.** 6.96 ± 0.31 %ID/g

**Q.** And the tissue to tissue ratio at 0.5 h (Ex vivo biodistribution; read-out: Tumor/Muscle ratio)?
**A.** 6.4 ± 3.6

**Q.** What about the tissue to tissue ratio at 0.5 h (Ex vivo biodistribution; read-out: Tumor/Pancreas ratio) of the same molecule?
**A.** 7.08 ± 2.57

**Q.** And the tissue to tissue ratio at 0.5 h (Ex vivo biodistribution; read-out: Tumor/blood ratio)?
**A.** 3.31 ± 1.17

**Q.** And the tissue uptake at 1 h (Ex vivo biodistribution; read-out: Blood uptake)?
**A.** 0.49 ± 0.07 %ID/g

**Q.** What about the tissue uptake at 1 h (Ex vivo biodistribution; read-out: Brain uptake) of the same molecule?
**A.** 0.04 ± 0.01 %ID/g

**Q.** And the tissue uptake at 1 h (Ex vivo biodistribution; read-out: Heart uptake)?
**A.** 0.29 ± 0.08 %ID/g

**Q.** And the tissue uptake at 1 h (Ex vivo biodistribution; read-out: Liver uptake)?
**A.** 0.32 ± 0.02 %ID/g

**Q.** What about the tissue uptake at 1 h (Ex vivo biodistribution; read-out: Lung uptake) of the same molecule?
**A.** 0.65 ± 0.04 %ID/g

**Q.** And the tissue uptake at 1 h (Ex vivo biodistribution; read-out: Muscle uptake)?
**A.** 0.21 ± 0.05 %ID/g

**Q.** What about the tissue uptake at 1 h (Ex vivo biodistribution; read-out: Pancreas uptake) of the same molecule?
**A.** 0.16 ± 0.01 %ID/g

**Q.** What about the tissue uptake at 1 h (Ex vivo biodistribution; [1]) of the same molecule?
**A.** 0.15 ± 0.03 %ID/g

**Q.** And the tissue uptake at 1 h (Ex vivo biodistribution; read-out: Tumor uptake)?
**A.** 4.68 ± 0.25 %ID/g

**Q.** What about the tissue to tissue ratio at 1 h (Ex vivo biodistribution; read-out: Tumor/Muscle ratio) of the same molecule?
**A.** 25.8 ± 6.71

**Q.** And the tissue to tissue ratio at 1 h (Ex vivo biodistribution; read-out: Tumor/Pancreas ratio)?
**A.** 28.8 ± 0.97

**Q.** And the tissue to tissue ratio at 1 h (Ex vivo biodistribution; read-out: Tumor/blood ratio)?
**A.** 9.86 ± 1.1

**Q.** What about the tissue uptake at 1.5 h (Ex vivo biodistribution; read-out: Blood uptake) of the same molecule?
**A.** 1.18 ± 0.27 %ID/g

**Q.** What about the tissue uptake at 1.5 h (Ex vivo biodistribution; read-out: Brain uptake) of the same molecule?
**A.** 0.05 ± 0.01 %ID/g

**Q.** And the tissue uptake at 1.5 h (Ex vivo biodistribution; read-out: Femur uptake)?
**A.** 0.68 ± 0.11 %ID/g

**Q.** And the tissue uptake at 1.5 h (Ex vivo biodistribution; read-out: Heart uptake)?
**A.** 0.76 ± 0.13 %ID/g

**Q.** What about the tissue uptake at 1.5 h (Ex vivo biodistribution; read-out: Liver uptake) of the same molecule?
**A.** 0.9 ± 0.17 %ID/g

**Q.** And the tissue uptake at 1.5 h (Ex vivo biodistribution; read-out: Lung uptake)?
**A.** 1.4 ± 0.27 %ID/g

**Q.** What about the tissue uptake at 1.5 h (Ex vivo biodistribution; read-out: Muscle uptake) of the same molecule?
**A.** 0.37 ± 0.11 %ID/g

**Q.** What about the tissue uptake at 1.5 h (Ex vivo biodistribution; read-out: Pancreas uptake) of the same molecule?
**A.** 0.57 ± 0.15 %ID/g

**Q.** What about the tissue uptake at 1.5 h (Ex vivo biodistribution; [1]) of the same molecule?
**A.** 0.27 ± 0.06 %ID/g

**Q.** What about the tissue uptake at 1.5 h (Ex vivo biodistribution; read-out: Thymus uptake) of the same molecule?
**A.** 1.64 ± 0.42 %ID/g

**Q.** And the tissue uptake at 1.5 h (Ex vivo biodistribution; read-out: Tumor uptake)?
**A.** 6.04 ± 1.46 %ID/g

**Q.** What about the tissue to tissue ratio at 1.5 h (Ex vivo biodistribution; read-out: Tumor/Muscle ratio) of the same molecule?
**A.** 17 ± 2.11

**Q.** And the tissue to tissue ratio at 1.5 h (Ex vivo biodistribution; read-out: Tumor/Pancreas ratio)?
**A.** 10.7 ± 0.2

**Q.** What about the tissue to tissue ratio at 1.5 h (Ex vivo biodistribution; read-out: Tumor/blood ratio) of the same molecule?
**A.** 5.43 ± 1.32

**Q.** And the tissue uptake at 2 h (Ex vivo biodistribution; read-out: Blood uptake)?
**A.** 0.9 ± 0.29 %ID/g

**Q.** And the tissue uptake at 2 h (Ex vivo biodistribution; read-out: Brain uptake)?
**A.** 0.05 ± 0.01 %ID/g

**Q.** And the tissue uptake at 2 h (Ex vivo biodistribution; read-out: Femur uptake)?
**A.** 0.83 ± 0.33 %ID/g

**Q.** What about the tissue uptake at 2 h (Ex vivo biodistribution; read-out: Heart uptake) of the same molecule?
**A.** 0.68 ± 0.17 %ID/g

**Q.** What about the tissue uptake at 2 h (Ex vivo biodistribution; read-out: Liver uptake) of the same molecule?
**A.** 0.84 ± 0.13 %ID/g

**Q.** What about the tissue uptake at 2 h (Ex vivo biodistribution; read-out: Lung uptake) of the same molecule?
**A.** 1.15 ± 0.22 %ID/g

Reference: article PMC11984392, “EphA2-targeted alpha-particle theranostics for enhancing PDAC treatment” (Theranostics, 2025)
